Reference: the NIST ThermoML archive (doi:10.1016/j.fluid.2004.11.019)

Assay: xn = mol fraction of the nth substance listed
Conditions: Liquid

CCO [ethanol] + O
Conditions	mass density [kg/m3]
298.15 K, 30000 kPa, x1 = 0.35	907.2
298.15 K, 30000 kPa, x1 = 0.4034	895.5
298.15 K, 30000 kPa, x1 = 0.4501	885.7
298.15 K, 30000 kPa, x1 = 0.498	876.8
298.15 K, 30000 kPa, x1 = 0.5501	867.6
298.15 K, 30000 kPa, x1 = 0.5998	859.5
298.15 K, 30000 kPa, x1 = 0.6489	852
298.15 K, 30000 kPa, x1 = 0.6967	845.1
298.15 K, 30000 kPa, x1 = 0.7475	838.5
298.15 K, 30000 kPa, x1 = 0.7996	831.9
298.15 K, 30000 kPa, x1 = 0.8484	825.9
298.15 K, 30000 kPa, x1 = 0.8993	820
298.15 K, 30000 kPa, x1 = 0.9503	814.5
298.15 K, 30000 kPa, x1 = 1	808.9
298.15 K, 40000 kPa, x1 = 0.003	1012.7
298.15 K, 40000 kPa, x1 = 0.0042	1011.5
298.15 K, 40000 kPa, x1 = 0.0082	1010
298.15 K, 40000 kPa, x1 = 0.0119	1008.3
298.15 K, 40000 kPa, x1 = 0.0158	1006.4
298.15 K, 40000 kPa, x1 = 0.0184	1005
298.15 K, 40000 kPa, x1 = 0.0219	1004.1
298.15 K, 40000 kPa, x1 = 0.0255	1002.4
298.15 K, 40000 kPa, x1 = 0.0279	1000.8
298.15 K, 40000 kPa, x1 = 0.0315	1000
298.15 K, 40000 kPa, x1 = 0.0366	997.6
298.15 K, 40000 kPa, x1 = 0.0392	996.4
298.15 K, 40000 kPa, x1 = 0.0439	995.1
298.15 K, 40000 kPa, x1 = 0.0483	993.3
298.15 K, 40000 kPa, x1 = 0.0516	992.7
298.15 K, 40000 kPa, x1 = 0.0559	991.5
298.15 K, 40000 kPa, x1 = 0.06	990.1
298.15 K, 40000 kPa, x1 = 0.0652	988.4
298.15 K, 40000 kPa, x1 = 0.0679	987.6
298.15 K, 40000 kPa, x1 = 0.0722	986.3
298.15 K, 40000 kPa, x1 = 0.0801	983.7
298.15 K, 40000 kPa, x1 = 0.084	983.2
298.15 K, 40000 kPa, x1 = 0.0879	981.9
298.15 K, 40000 kPa, x1 = 0.0926	980.6
298.15 K, 40000 kPa, x1 = 0.0958	979.8
298.15 K, 40000 kPa, x1 = 0.1006	978.5
298.15 K, 40000 kPa, x1 = 0.1111	975.4
298.15 K, 40000 kPa, x1 = 0.1225	972.2
298.15 K, 40000 kPa, x1 = 0.1296	970.4
298.15 K, 40000 kPa, x1 = 0.1402	967.3
298.15 K, 40000 kPa, x1 = 0.151	964.3
298.15 K, 40000 kPa, x1 = 0.1601	961.7
298.15 K, 40000 kPa, x1 = 0.1703	958.9
298.15 K, 40000 kPa, x1 = 0.18	956.2
298.15 K, 40000 kPa, x1 = 0.1903	953.3
298.15 K, 40000 kPa, x1 = 0.1996	950.5
298.15 K, 40000 kPa, x1 = 0.2269	942.9
298.15 K, 40000 kPa, x1 = 0.2502	936.7
298.15 K, 40000 kPa, x1 = 0.2745	930.3
298.15 K, 40000 kPa, x1 = 0.3009	923.7
298.15 K, 40000 kPa, x1 = 0.35	911.9
298.15 K, 40000 kPa, x1 = 0.4034	900.4
298.15 K, 40000 kPa, x1 = 0.4501	890.8
298.15 K, 40000 kPa, x1 = 0.498	882
298.15 K, 40000 kPa, x1 = 0.5501	873
298.15 K, 40000 kPa, x1 = 0.5998	865.1
298.15 K, 40000 kPa, x1 = 0.6489	857.7
298.15 K, 40000 kPa, x1 = 0.6967	851
298.15 K, 40000 kPa, x1 = 0.7475	844.5
298.15 K, 40000 kPa, x1 = 0.7996	838.1
298.15 K, 40000 kPa, x1 = 0.8484	832.3
298.15 K, 40000 kPa, x1 = 0.8993	826.5
298.15 K, 40000 kPa, x1 = 0.9503	821
298.15 K, 40000 kPa, x1 = 1	815.7
323.15 K, 100 kPa, x1 = 0.003	986.5
323.15 K, 100 kPa, x1 = 0.0042	985.4
323.15 K, 100 kPa, x1 = 0.0082	984
323.15 K, 100 kPa, x1 = 0.0119	982.7
323.15 K, 100 kPa, x1 = 0.0158	980.5
323.15 K, 100 kPa, x1 = 0.0184	979.2
323.15 K, 100 kPa, x1 = 0.0219	978
323.15 K, 100 kPa, x1 = 0.0255	976.5
323.15 K, 100 kPa, x1 = 0.0279	974.8
323.15 K, 100 kPa, x1 = 0.0315	973.9
323.15 K, 100 kPa, x1 = 0.0366	971.4
323.15 K, 100 kPa, x1 = 0.0392	970.2
323.15 K, 100 kPa, x1 = 0.0439	968.6
323.15 K, 100 kPa, x1 = 0.0483	966.6
323.15 K, 100 kPa, x1 = 0.0516	965.9
323.15 K, 100 kPa, x1 = 0.0559	964.5
323.15 K, 100 kPa, x1 = 0.06	962.9
323.15 K, 100 kPa, x1 = 0.0652	960.9
323.15 K, 100 kPa, x1 = 0.0679	960.2
323.15 K, 100 kPa, x1 = 0.0722	958.3
323.15 K, 100 kPa, x1 = 0.0801	955.1
323.15 K, 100 kPa, x1 = 0.084	954.7
323.15 K, 100 kPa, x1 = 0.0879	952.9
323.15 K, 100 kPa, x1 = 0.0926	951.4
323.15 K, 100 kPa, x1 = 0.0958	950.1
323.15 K, 100 kPa, x1 = 0.1006	948.5
323.15 K, 100 kPa, x1 = 0.1111	944.7
323.15 K, 100 kPa, x1 = 0.1225	940.6
323.15 K, 100 kPa, x1 = 0.1296	938.2
323.15 K, 100 kPa, x1 = 0.1402	934.5
323.15 K, 100 kPa, x1 = 0.151	930.7
323.15 K, 100 kPa, x1 = 0.1601	927.5
323.15 K, 100 kPa, x1 = 0.1703	924
